# Experimental data reported in article doi:10.1101/2024.08.13.607785v1 (biorxiv, 2024).
# Read-outs that look alike come from different tables or passages of the source.
# Experiments:
# Test in all cases: biochemical
# Design in all cases: species or system mixed lysate of K562, MV4-11, THP-1, NCI-H1155
# [1] = biological target: Calcium/calmodulin-dependent protein kinase kinase 1 ; CAMKK1 ; Q8N5S9 (Homo sapiens, UniProt Q8N5S9)
# [2] = biological target: Cyclin-dependent kinase 1 ; CDK1 ; P06493 (Homo sapiens, UniProt P06493)
# [3] = biological target: Cyclin-dependent kinase 2 ; CDK2 ; P24941 (Homo sapiens, UniProt P24941)
# [4] = biological target: Cyclin-dependent kinase 4 ; CDK4 ; P11802 (Homo sapiens, UniProt P11802)
# [5] = biological target: Cyclin-dependent kinase 6 ; CDK6 ; Q00534 (Homo sapiens, UniProt Q00534)
# [6] = biological target: Cyclin-dependent kinase 7 ; CDK7 ; P50613 (Homo sapiens, UniProt P50613)
# [7] = biological target: Cyclin-dependent kinase 8 ; CDK8 ; P49336 (Homo sapiens, UniProt P49336)
# [8] = biological target: T1, Cyclin-dependent kinase-like 5 ; CDKL5 ; O76039 (Homo sapiens, UniProt O76039)
# T1 sequence (O76039 1-960): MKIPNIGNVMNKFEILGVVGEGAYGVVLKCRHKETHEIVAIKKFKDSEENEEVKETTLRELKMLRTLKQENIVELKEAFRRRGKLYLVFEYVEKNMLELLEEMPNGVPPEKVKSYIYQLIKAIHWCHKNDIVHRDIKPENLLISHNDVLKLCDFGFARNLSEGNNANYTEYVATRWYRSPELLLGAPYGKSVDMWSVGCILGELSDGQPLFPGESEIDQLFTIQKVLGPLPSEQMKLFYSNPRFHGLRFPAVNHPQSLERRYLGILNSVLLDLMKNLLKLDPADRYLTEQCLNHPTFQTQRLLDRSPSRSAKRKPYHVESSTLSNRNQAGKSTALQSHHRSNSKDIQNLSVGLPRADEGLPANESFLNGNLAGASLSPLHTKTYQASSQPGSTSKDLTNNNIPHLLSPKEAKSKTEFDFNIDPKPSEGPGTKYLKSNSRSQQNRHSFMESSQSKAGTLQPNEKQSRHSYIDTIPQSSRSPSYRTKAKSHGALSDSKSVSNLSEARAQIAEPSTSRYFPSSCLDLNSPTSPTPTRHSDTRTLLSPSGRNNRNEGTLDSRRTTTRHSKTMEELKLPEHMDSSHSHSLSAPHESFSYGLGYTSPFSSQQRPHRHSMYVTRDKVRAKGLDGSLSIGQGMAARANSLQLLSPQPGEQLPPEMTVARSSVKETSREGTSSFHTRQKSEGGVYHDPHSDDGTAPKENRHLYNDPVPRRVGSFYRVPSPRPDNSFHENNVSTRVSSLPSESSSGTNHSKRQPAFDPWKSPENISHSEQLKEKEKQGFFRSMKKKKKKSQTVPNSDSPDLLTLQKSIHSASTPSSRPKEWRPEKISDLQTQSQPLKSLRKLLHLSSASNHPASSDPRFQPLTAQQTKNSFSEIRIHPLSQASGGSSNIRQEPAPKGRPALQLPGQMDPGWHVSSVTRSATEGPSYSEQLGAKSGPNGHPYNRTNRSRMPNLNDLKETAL
# [9] = biological target: Cyclin-dependent-like kinase 5 ; CDK5 ; Q00535 (Homo sapiens, UniProt Q00535)
# [10] = biological target: Epithelial discoidin domain-containing receptor 1 ; DDR1 ; Q08345 (Homo sapiens, UniProt Q08345)
# [11] = biological target: Isoform 2 of Cyclin-dependent kinase 17 ; CDK17 ; Q00537-2 (Homo sapiens, UniProt Q00537)
# [12] = biological target: Isoform 2 of Glycogen synthase kinase-3 beta ; GSK3B ; P49841-2 (Homo sapiens, UniProt P49841)
# [13] = biological target: Isoform 4 of TRAF2 and NCK-interacting protein kinase ; TNIK ; Q9UKE5-4 (Homo sapiens, UniProt Q9UKE5)
# [14] = biological target: Mast/stem cell growth factor receptor Kit ; KIT ; P10721 (Homo sapiens, UniProt P10721)
# [15] = read-out: BAY-1143572 (10 µM) / %Intensity relative to DMSO
# [16] = read-out: BAY-1251152 (10 µM) / %Intensity relative to DMSO
# Sequence of Cyclin-dependent kinase 1 ; CDK1 ; P06493 (P06493 whole entry, one chain of several): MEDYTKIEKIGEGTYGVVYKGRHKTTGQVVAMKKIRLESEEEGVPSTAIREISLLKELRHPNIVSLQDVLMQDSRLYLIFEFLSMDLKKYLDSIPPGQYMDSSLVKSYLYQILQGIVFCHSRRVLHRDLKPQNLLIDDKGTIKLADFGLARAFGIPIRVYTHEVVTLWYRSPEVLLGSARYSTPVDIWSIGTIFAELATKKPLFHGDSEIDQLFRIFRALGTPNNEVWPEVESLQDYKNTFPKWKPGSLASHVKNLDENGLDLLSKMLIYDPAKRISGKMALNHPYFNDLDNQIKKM
# Sequence of Isoform 4 of TRAF2 and NCK-interacting protein kinase ; TNIK ; Q9UKE5-4 (Q9UKE5 whole entry, canonical isoform, one chain of several): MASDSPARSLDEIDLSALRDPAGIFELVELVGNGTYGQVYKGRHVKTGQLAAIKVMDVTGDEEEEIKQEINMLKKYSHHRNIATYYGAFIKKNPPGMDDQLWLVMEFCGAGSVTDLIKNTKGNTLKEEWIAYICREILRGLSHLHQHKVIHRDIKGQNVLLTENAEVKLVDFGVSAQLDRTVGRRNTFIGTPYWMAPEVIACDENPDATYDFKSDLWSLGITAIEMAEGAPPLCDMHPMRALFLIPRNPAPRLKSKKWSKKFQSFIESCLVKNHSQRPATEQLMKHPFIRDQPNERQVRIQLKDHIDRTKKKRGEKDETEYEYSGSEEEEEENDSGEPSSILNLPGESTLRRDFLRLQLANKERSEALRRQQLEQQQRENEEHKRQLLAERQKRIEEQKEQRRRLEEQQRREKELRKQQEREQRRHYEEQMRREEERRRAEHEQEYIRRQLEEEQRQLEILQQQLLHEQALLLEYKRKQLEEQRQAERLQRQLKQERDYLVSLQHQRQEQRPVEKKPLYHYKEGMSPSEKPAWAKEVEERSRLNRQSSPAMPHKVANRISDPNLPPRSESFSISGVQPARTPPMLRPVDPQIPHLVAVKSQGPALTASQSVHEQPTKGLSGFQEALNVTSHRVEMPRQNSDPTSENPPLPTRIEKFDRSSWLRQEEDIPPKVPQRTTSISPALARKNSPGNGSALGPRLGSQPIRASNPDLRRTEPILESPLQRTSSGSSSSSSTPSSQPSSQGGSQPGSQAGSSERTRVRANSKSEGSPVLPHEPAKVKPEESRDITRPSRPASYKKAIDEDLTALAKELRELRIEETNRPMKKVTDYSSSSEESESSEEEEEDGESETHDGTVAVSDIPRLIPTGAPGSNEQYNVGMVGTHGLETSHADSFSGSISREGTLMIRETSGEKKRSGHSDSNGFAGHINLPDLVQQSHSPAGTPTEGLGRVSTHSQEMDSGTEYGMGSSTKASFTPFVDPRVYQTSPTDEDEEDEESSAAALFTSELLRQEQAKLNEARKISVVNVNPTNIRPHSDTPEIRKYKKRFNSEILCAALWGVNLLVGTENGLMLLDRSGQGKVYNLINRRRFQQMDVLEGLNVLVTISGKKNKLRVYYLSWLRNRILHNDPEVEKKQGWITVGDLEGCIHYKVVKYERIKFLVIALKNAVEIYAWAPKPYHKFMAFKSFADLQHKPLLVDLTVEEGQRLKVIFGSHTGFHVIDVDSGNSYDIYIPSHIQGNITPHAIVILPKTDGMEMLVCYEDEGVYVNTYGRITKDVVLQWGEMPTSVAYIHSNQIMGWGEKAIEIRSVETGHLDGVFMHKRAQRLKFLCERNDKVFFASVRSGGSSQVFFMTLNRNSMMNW
# Sequence of Isoform 2 of Cyclin-dependent kinase 17 ; CDK17 ; Q00537-2 (Q00537 whole entry, canonical isoform, one chain of several): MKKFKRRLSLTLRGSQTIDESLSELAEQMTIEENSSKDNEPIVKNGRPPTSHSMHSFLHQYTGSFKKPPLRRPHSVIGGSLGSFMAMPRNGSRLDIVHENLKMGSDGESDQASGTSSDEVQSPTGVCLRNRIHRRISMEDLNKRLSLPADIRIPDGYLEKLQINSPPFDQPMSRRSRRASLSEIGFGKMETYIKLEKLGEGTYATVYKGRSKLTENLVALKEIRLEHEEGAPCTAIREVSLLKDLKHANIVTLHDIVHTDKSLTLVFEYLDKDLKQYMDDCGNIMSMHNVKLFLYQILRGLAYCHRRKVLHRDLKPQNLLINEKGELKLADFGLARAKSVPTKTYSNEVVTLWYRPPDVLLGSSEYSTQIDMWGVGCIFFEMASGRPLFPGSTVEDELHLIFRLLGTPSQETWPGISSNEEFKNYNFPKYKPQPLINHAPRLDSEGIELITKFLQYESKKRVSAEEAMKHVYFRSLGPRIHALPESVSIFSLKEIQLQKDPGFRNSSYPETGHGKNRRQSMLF
# Sequence of Mast/stem cell growth factor receptor Kit ; KIT ; P10721 (P10721 whole entry, one chain of several): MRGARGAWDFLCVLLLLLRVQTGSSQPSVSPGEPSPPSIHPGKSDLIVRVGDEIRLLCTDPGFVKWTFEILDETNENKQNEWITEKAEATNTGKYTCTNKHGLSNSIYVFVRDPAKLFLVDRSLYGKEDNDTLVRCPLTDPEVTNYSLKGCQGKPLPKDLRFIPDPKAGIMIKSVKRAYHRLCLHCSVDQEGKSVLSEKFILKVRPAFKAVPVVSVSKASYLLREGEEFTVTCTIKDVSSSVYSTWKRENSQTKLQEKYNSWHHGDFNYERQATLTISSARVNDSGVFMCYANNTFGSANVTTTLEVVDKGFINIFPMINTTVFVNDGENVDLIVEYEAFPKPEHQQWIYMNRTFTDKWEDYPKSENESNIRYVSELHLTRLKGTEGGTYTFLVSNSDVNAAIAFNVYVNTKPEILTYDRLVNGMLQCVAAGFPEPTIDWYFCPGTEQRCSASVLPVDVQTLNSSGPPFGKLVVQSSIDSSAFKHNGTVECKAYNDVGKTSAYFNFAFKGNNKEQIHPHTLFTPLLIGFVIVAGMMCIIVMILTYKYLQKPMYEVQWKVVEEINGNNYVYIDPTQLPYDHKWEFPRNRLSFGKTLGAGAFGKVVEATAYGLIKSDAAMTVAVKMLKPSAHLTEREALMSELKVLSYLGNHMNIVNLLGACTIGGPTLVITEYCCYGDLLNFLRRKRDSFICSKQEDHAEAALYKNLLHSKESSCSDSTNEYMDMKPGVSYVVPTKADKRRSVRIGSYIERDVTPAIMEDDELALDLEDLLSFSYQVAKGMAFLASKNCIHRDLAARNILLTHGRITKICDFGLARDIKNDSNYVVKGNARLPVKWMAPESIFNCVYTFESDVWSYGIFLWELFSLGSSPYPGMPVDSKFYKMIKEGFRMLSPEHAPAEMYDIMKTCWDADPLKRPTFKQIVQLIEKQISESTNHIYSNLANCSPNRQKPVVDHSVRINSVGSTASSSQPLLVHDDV
# Sequence of Epithelial discoidin domain-containing receptor 1 ; DDR1 ; Q08345 (Q08345 whole entry, the tested form may be a part, canonical isoform): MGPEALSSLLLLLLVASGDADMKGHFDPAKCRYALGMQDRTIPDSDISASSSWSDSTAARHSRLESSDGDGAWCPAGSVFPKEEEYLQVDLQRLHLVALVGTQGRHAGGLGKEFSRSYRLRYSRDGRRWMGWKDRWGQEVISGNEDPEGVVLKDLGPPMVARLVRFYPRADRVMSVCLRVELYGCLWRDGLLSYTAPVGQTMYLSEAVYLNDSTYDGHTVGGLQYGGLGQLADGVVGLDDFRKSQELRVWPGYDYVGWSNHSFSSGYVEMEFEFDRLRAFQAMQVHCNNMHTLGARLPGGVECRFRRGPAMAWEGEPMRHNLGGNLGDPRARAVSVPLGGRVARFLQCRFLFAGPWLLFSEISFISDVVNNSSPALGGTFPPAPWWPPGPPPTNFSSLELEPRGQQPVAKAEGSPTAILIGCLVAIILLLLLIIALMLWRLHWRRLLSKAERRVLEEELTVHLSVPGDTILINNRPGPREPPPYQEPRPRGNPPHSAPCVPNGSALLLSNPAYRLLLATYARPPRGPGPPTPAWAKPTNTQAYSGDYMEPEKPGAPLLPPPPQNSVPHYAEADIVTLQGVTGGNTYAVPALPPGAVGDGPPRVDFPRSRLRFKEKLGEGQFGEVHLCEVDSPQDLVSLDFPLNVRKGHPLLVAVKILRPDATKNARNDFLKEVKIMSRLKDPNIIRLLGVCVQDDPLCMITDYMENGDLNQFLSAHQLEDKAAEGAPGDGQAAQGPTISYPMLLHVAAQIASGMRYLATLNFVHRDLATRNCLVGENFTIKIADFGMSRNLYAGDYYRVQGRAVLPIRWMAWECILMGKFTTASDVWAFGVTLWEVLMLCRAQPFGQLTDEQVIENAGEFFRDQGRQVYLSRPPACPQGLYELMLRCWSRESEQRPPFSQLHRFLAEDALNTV
# Sequence of Cyclin-dependent kinase 4 ; CDK4 ; P11802 (P11802 whole entry, one chain of several): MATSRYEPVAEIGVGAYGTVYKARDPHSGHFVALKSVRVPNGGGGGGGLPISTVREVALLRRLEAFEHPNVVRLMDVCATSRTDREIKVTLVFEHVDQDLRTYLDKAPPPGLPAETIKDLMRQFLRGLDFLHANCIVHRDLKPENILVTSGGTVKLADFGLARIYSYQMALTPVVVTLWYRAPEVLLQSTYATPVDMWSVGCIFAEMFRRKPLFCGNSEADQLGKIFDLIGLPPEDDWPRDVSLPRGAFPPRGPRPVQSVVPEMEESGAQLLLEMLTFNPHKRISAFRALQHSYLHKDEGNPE
# Sequence of Isoform 2 of Glycogen synthase kinase-3 beta ; GSK3B ; P49841-2 (P49841 whole entry, canonical isoform): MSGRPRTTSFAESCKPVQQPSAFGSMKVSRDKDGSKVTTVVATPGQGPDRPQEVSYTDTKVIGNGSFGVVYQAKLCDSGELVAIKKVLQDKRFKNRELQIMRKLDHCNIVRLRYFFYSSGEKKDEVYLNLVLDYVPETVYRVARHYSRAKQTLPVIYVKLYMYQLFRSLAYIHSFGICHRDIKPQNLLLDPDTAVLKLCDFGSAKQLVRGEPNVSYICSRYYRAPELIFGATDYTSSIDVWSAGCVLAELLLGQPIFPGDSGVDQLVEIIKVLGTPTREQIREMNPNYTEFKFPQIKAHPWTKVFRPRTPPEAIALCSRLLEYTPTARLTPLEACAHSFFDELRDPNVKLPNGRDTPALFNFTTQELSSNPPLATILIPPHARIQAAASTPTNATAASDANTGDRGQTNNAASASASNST
structure (smiles),measurement,setting,value
COc1cc(F)ccc1-c1ncnc(Nc2cccc(C[S@](C)(=N)=O)c2)n1 [BAY-1143572],remaining activity at 10 µM,[1]; [15],15.4%
same,remaining activity at 10 µM,[2]; [15],99.5%
same,remaining activity at 10 µM,[3]; [15],31.4%
same,remaining activity at 10 µM,[4]; [15],133%
same,remaining activity at 10 µM,[5]; [15],94.2%
same,remaining activity at 10 µM,[6]; [15],117%
same,remaining activity at 10 µM,[7]; [15],114%
same,remaining activity at 10 µM,[8]; [15],27.1%
same,remaining activity at 10 µM,[9]; [15],83.6%
same,remaining activity at 10 µM,[10]; [15],56%
same,remaining activity at 10 µM,[11]; [15],66.1%
same,remaining activity at 10 µM,[12]; [15],7.95%
same,remaining activity at 10 µM,[13]; [15],78.3%
same,remaining activity at 10 µM,[14]; [15],24.3%
COc1cc(F)ccc1-c1cc(Nc2cc(CS(C)(=N)=O)ccn2)ncc1F (stereo not shown) [BAY-1251152],remaining activity at 10 µM,[1]; [16],10.4%
same,remaining activity at 10 µM,[2]; [16],89.7%
same,remaining activity at 10 µM,[3]; [16],34.1%
same,remaining activity at 10 µM,[4]; [16],121%
same,remaining activity at 10 µM,[5]; [16],82.1%
same,remaining activity at 10 µM,[6]; [16],110%
same,remaining activity at 10 µM,[7]; [16],116%
same,remaining activity at 10 µM,[8]; [16],78.6%
same,remaining activity at 10 µM,[9]; [16],84.7%
same,remaining activity at 10 µM,[10]; [16],48.9%
same,remaining activity at 10 µM,[11]; [16],49.4%
same,remaining activity at 10 µM,[12]; [16],11.9%
same,remaining activity at 10 µM,[13]; [16],37.2%
same,remaining activity at 10 µM,[14]; [16],102%
